Experimental data as given in publication PMC10033419, “Blocking NS3–NS4B interaction inhibits dengue virus in non-human primates” (Nature, 2023).
Several values for one entry are separate records, joined by “and”; a condition that tells them apart may be missing. Equal values may be shown once. Read-outs that look alike come from different tables or passages of the source.

How the values were obtained:
[1] = test system: INF-A Taiwan/1/86; assay: microbe, parasite or virus in culture; assay type: cell-based; details: Influenza A virus, MDCK
[2] = test system: NS4A-2K-NS4B precursor cleavage; assay: microbe, parasite or virus in culture; assay type: cell-based, DENV-2
[3] = test system: DENV-2 RL strain; assay: Antiviral assay, viral RNA RT-qPCR, C6/36 cells; assay type: cell-based

COc1cc(N[C@H](C(=O)c2c[nH]c3ccc(OC(F)(F)F)cc23)c2ccc(Cl)cc2OC)cc(S(C)(=O)=O)c1 [JNJ-1802]
EC50 [1]: > 2600 nM | EC50 ([1]; read-out: EC50, Mean): > 25000 nM | EC90 ([1]; read-out: EC90, Mean): > 25000 nM | EC50 ([2]; Dengue virus, read-out: EC50 2k-4B Input, Mean, WT): 1.72 nM | 2K-NS4B proportion in lysate ([2]; L94F, 10 nM): 18.25% and 11.99% and 16.55% | 2K-NS4B proportion in lysate ([2]; L94F, 500 nM): 4.03% and 6.25% and 1.49% | NS4A-2K-NS4B proportion in lysate ([2]; L94F, 500 nM): 75.65% and 50.22% and 78.28% | 2K-NS4B proportion in lysate ([2]; L94F, 1000 nM): 3.64% and 2.91% and 2.22% | NS4A-2K-NS4B proportion in lysate ([2]; L94F, 1000 nM): 77.84% and 43.16% and 74.46% | EC50 ([2]; L94F, read-out: EC50 2k-4B Input, Mean): 108 nM | 2K-NS4B proportion in lysate ([2]; T108I, 0.5 nM): 23.11% and 13.79% and 13.87% | NS4A-2K-NS4B proportion in lysate ([2]; T108I, 0.5 nM): 44.71% and 43.02% and 68.40% | NS4A-2K-NS4B proportion in lysate ([2]; T108I, 1 nM): 72.39% and 47.37% and 49.13% | 2K-NS4B proportion in lysate ([2]; T108I, 5 nM): 9.35% and 15.53% and 10.95% | NS4A-2K-NS4B proportion in lysate ([2]; T108I, 5 nM): 71.83% and 55.33% and 51.65% | NS4B proportion in lysate ([2]; T108I, 5 nM): 18.83% and 29.14% and 37.41% | 2K-NS4B proportion in lysate ([2]; T108I, 10 nM): 5.10% and 8.23% and 10.83% | NS4A-2K-NS4B proportion in lysate ([2]; T108I, 10 nM): 71.88% and 68.85% and 55.44% | NS4B proportion in lysate ([2]; T108I, 10 nM): 23.02% and 22.91% and 33.72% | 2K-NS4B proportion in lysate ([2]; T108I, 50 nM): 3.79% and 3.62% and 3.12% | NS4A-2K-NS4B proportion in lysate ([2]; T108I, 50 nM): 72.18% and 59.64% and 51.99% | NS4B proportion in lysate ([2]; T108I, 50 nM): 24.02% and 36.74% and 44.89% | EC50 ([2]; T108I, single replicates, read-out: EC50 (2k-4B), Input): 6.08 nM and 6.88 nM and 20.9 nM | EC50 ([2]; T108I, read-out: EC50 2k-4B Input, Mean): 11.3 nM | 2K-NS4B proportion in lysate ([2]; V91A, 10 nM): 18.41% and 10.69% and 19.20% | 2K-NS4B proportion in lysate ([2]; V91A, 50 nM): 12.06% and 15.08% and 7.29% | 2K-NS4B proportion in lysate ([2]; V91A, 100 nM): 6.22% and 11.02% and 2.95% | 2K-NS4B proportion in lysate ([2]; V91A, 500 nM): 2.16% and 3.56% and 1.47% | NS4A-2K-NS4B proportion in lysate ([2]; V91A, 500 nM): 73.60% and 43.02% and 80.18% | 2K-NS4B proportion in lysate ([2]; V91A, 1000 nM): 2.06% and 2.88% and 1.78% | EC50 ([2]; V91A, single replicates, read-out: EC50 (2k-4B), Input): 44.9 nM and 134 nM and 55.6 nM | EC50 ([2]; V91A, read-out: EC50 2k-4B Input, Mean): 78 nM | 2K-NS4B proportion in lysate ([2]; WT, 0.5 nM): 20.47% and 12.95% and 13.02% | NS4A-2K-NS4B proportion in lysate ([2]; WT, 0.5 nM): 48.09% and 36.63% and 65.93% | 2K-NS4B proportion in lysate ([2]; WT, 1 nM): 5.60% and 9.33% and 12.10% | NS4A-2K-NS4B proportion in lysate ([2]; WT, 1 nM): 66.81% and 44.14% and 43.57% | NS4B proportion in lysate ([2]; WT, 1 nM): 27.59% and 46.53% and 44.33% | 2K-NS4B proportion in lysate ([2]; WT, 5 nM): 3.71% and 6.95% and 6.88% | NS4A-2K-NS4B proportion in lysate ([2]; WT, 5 nM): 60.94% and 43.36% and 51.87% | NS4B proportion in lysate ([2]; WT, 5 nM): 35.35% and 49.69% and 41.25% | 2K-NS4B proportion in lysate ([2]; WT, 10 nM): 3.62% and 6.23% and 4.49% | NS4A-2K-NS4B proportion in lysate ([2]; WT, 10 nM): 59.94% and 47.30% and 50.84% | NS4B proportion in lysate ([2]; WT, 10 nM): 36.44% and 46.47% and 44.67% | 2K-NS4B proportion in lysate ([2]; WT, 50 nM): 5.23% and 6.22% and 5.06% | NS4A-2K-NS4B proportion in lysate ([2]; WT, 50 nM): 53.55% and 57.44% and 58.39% | NS4B proportion in lysate ([2]; WT, 50 nM): 41.22% and 36.34% and 36.55% | EC50 ([2]; read-out: EC50 (2k-4B), Input, WT, single replicates): 0.491 nM and 0.62 nM and 4.06 nM | EC50 ([3]; C3/36 cells, DENV-2RL, EXP 1 and EXP 2, read-out: EC50, individual values): 1.34 nM and 1.19 nM and 1.38 nM | EC90 ([3]; C3/36 cells, DENV-2RL, EXP 1 and EXP 2, read-out: EC90, individual values): 7.33 nM and 7.51 nM and 5.46 nM | EC50 ([3]; Dengue virus, DENV2, C6/36, C3/36 cells, DENV-2RL, EXP 1 and EXP 2, read-out: EC50, individual values): 1.05 nM | EC90 ([3]; Dengue virus, DENV2, C6/36, C3/36 cells, DENV-2RL, EXP 1 and EXP 2, read-out: EC90, individual values): 5.52 nM | EC50 ([3]; Dengue virus, DENV2, C6/36, C3/36 cells, DENV-2RL, mean, read-out: EC50 Mean): 1.2 nM | EC90 ([3]; Dengue virus, DENV2, C6/36, C3/36 cells, DENV-2RL, mean, read-out: EC90 Mean): 6.46 nM | EC50 ([3]; Dengue virus, DENV2, C6/36, C6/36, read-out: EC50): 1.24 ± 0.14 nM | EC90 ([3]; Dengue virus, DENV2, C6/36, C6/36, read-out: EC90): 6.5 ± 1 nM
